Tests used:
[1] = system: Klebsiella pneumoniae ATCC 13833; assay: microbe, parasite or virus in culture; format: cell-based
Procedure: (§1) Growth inhibition or killing of bacteria was investigated using conventional methods widely described in the scientific literature. Parameters such as the Minimum Inhibitory Concentration (MIC) were determined as described in Clinical Laboratory Standard Institute (CLSI) document M07 “Methods for Dilution Antimicrobial Susceptibility Tests for Bacteria That Grow Aerobically, 11th Edition” (2018). Synergistic activity of the compounds described in the present specification were determined by measuring the variation of the MIC's compound in the absence and presence of a sub-inhibitory concentration of a suitable antibacterial agent, such as polymyxin E1. Furthermore, the Fractional Inhibitory Concentrations (FICs) were measured using a chequerboard analysis to determine the average FIC index (FICI), whose value is known to characterize the interaction between two compounds and/or drugs (≤0.5, synergistic interaction; >0.5 and <2, no interaction, additive effect; ≥2, antagonistic interaction). Furthermore, the selectivity of the compounds was investigated by measuring their cytotoxic effect on mammalian cell lines (e.g. HeLa cells).
(§2) Several methods were used to investigate the synergistic activity of the compounds, including (a) the determination of the MIC in the presence of a sub-inhibitory concentration of a suitable antibacterial agent, (b) the determination of the average FICI using a chequerboard analysis and (c) the time-kill curve analysis of a suitable agent (at a sub-inhibitory concentration) in the absence and presence of the pyrazolo[4,3-b]pyridin-6-carboxamide compound at a fixed concentration of 2 or 8 mg/L.
(§3) The MIC of the compound was determined alone and in the presence of a fixed and sub-inhibitory concentration of a suitable antibacterial agent of the polymyxin class, such as polymyxin E1 (colistin). The potentiation fold was computed as the ratio MICcompound/MICcompound+polymyxin E. Tested organisms included Escherichia coli CCUG^TKlebsiella pneumoniae ATCC 13833 and Acinetobacter baumannii ATCC 17978, which show a colistin MIC of 0.5, 0.5 and 1 mg/L, respectively.

Escherichia coli CCUG^T = assay: microbe, parasite or virus in culture; format: cell-based; details: Escherichia coli
Procedure: as §1, §2, §3

[2] = system: Acinetobacter baumannii ATCC 17978; assay: microbe, parasite or virus in culture; format: cell-based
Procedure: as §1, §2, §3

K. pneumoniae SI-4B = assay: Chequerboard analysis with polymyxin E1 (average FIC index); format: cell-based, Klebsiella pneumoniae; details: K. pneumoniae SI-4B (colistin-resistant); compound + polymyxin E1
K. pneumoniae SI-27 = assay: as above; format: cell-based, Klebsiella pneumoniae; details: K. pneumoniae SI-27 (colistin-resistant); compound + polymyxin E1

## CCCCn1c(=O)c(C(=O)NC23CC4CC(CC(C4)C2)C3)c(O)c2nn(CCO)cc21 [Im, N-(Adamantan-1-yl)-4-(1-butyl)-4,5-dihydro-7-hydroxy-2-(2-hydroxyethyl)-5-oxo-2H-pyrazolo[4,3-b]pyridin-6-carboxamide]
[1]; K. pneumoniae ATCC 13833, ratio MICcompound/MICcompound+polymyxin E
  Potentiation fold: ≥64
[1]; K. pneumoniae ATCC 13833, with 0.25xMIC polymyxin E1 (0.12 mg/L)
  MIC in presence of colistin: 8 µg/mL
[1]; Klebsiella pneumoniae, ATCC13833
  MIC: > 512 µg/mL
Escherichia coli CCUG^T
  MIC: > 512 µg/mL
[2]; A. baumannii ATCC 17978, ratio MICcompound/MICcompound+polymyxin E
  Potentiation fold: ≥64
[2]; A. baumannii ATCC 17978, with 0.25xMIC polymyxin E1 (0.25 mg/L)
  MIC in presence of colistin: 8 µg/mL
[2]; Acinetobacter baumannii, ATCC17978
  MIC: > 512 µg/mL
K. pneumoniae SI-4B
  Average FIC index: 0.31
K. pneumoniae SI-27
  Average FIC index: 0.41

From patent US12358919B2, “Antibacterial compounds” (Universita' degli Studi di Siena, priority 2019, dated 2025)
